Data published in patent publication US11135176B1 (Florida A&M University, priority 2016, dated 2021).

Assays:
[1] = Solubility of IBU in lipids (visual); type: physicochemical; parameters: key to Solubility of IBU in Geleol mono and diglyceride NF / Solubility of IBU in Glyceryl monostearate / Solubility of IBU in Stearic acid / Solubility of IBU in COMPRITOL ® 888ATO / Solubility of IBU in PRECIROL ® ATO5: +: Clear or transparent mixture implies the drug is soluble in lipid; conditions: for Solubility of IBU in COMPRITOL ® 888ATO / Solubility of IBU in Geleol mono and diglyceride NF / Solubility of IBU in Glyceryl monostearate / Solubility of IBU in PRECIROL ® ATO5 / Solubility of IBU in Stearic acid: 90° C.
Protocol: The selection of lipid was done by evaluating the solubility of IBU in different lipids such as Compritol® 888ATO (glyceryl behenate), Precirol® ATOS (glyceryl palmitosterate), geleol mono and diglyceride NF, glyceryl monostearate and stearic acid. Briefly, 10 mg of IBU was weighed and added into Eppendorf tube containing 100 mg of lipid. The mixture was then heated for 10 minutes in a water bath at 90° C. to facilitate solubilization. […] Finally, total of 40 mg of drug was added in 100 mg of lipid and checked for the precipitation.

[2] = Drug solubility in 4% of surfactant, analyzed by HPLC; type: physicochemical
[3] = 10 mg of IBU/100 mg of solid lipid
[4] = 20 mg of IBU/100 mg of solid lipid
[5] = 30 mg of IBU/100 mg of solid lipid
[6] = 40 mg of IBU/100 mg of solid lipid

- Solubility of IBU in COMPRITOL ® 888ATO [1, 3]: +
- Solubility of IBU in Geleol mono and diglyceride NF [1, 3]: +
- Solubility of IBU in Glyceryl monostearate [1, 3]: +
- Solubility of IBU in PRECIROL ® ATO5 [1, 3]: +
- Solubility of IBU in Stearic acid [1, 3]: +
- Solubility of IBU in COMPRITOL ® 888ATO [1, 4]: +
- Solubility of IBU in Geleol mono and diglyceride NF [1, 4]: +
- Solubility of IBU in Glyceryl monostearate [1, 4]: +
- Solubility of IBU in PRECIROL ® ATO5 [1, 4]: +
- Solubility of IBU in Stearic acid [1, 4]: +
- Solubility of IBU in COMPRITOL ® 888ATO [1, 5]: +
- Solubility of IBU in Geleol mono and diglyceride NF [1, 5]: +
- Solubility of IBU in Glyceryl monostearate [1, 5]: +
- Solubility of IBU in PRECIROL ® ATO5 [1, 5]: +
- Solubility of IBU in Stearic acid [1, 5]: +
- Solubility of IBU in COMPRITOL ® 888ATO [1, 6]: +
- Solubility of IBU in Geleol mono and diglyceride NF [1, 6]: +
- Solubility of IBU in Glyceryl monostearate [1, 6]: +
- Solubility of IBU in PRECIROL ® ATO5 [1, 6]: +
- Solubility of IBU in Stearic acid [1, 6]: +
- solubility of IBU in the lipid ([1]; 40 of IBU, heated at 90 C, Compritol 888 ATO, Precirol ATO 5, geleol mono and diglyceride NF, glyceryl monostearate and stearic acid): completely soluble
- drug soluble in the surfactant [2]: less than 5%
SMILES: CC(C)Cc1ccc(C(C)C(=O)O)cc1 (stereo not shown) [IBU, ibuprofen]
